Assays:
non-T2D mice = assay: Metabolic phenotyping in non-T2D mice (KKAa control strain, lean chow-fed); type: in vivo
Procedure: All compounds were dissolved in Kolliphor® EL (Sigma, #C5135).
Mice were fasted for 6 h prior to glucose tolerance tests (GTT). Baseline glucose levels at 0 min timepoint (fasting glucose, FG) were measured from blood sample collected from tail snipping using glucometer (Bayer Healthcare LLC). Either 1 g or 0.75 g D-Glucose/kg body weight were injected (i.p.) for lean or HFD mice, respectively and glucose levels were measured at 7, 15, 30, 60, 90 and 120 min timepoints after injection. For insulin tolerance tests (ITTs), the mice were fasted for 4 h. Similar to GTTs, the baseline blood glucose levels were measured at 0 min timepoint and 15, 30, 60, 90 and 120 min timepoints post-injection (i.p.) of insulin (HumulinR, 1 U/kg body weight for lean mice or 1.25 U/kg body weight for HFD mice). […] The collected plasma was then measured for insulin content by using Ultra-Sensitive Mouse Insulin ELISA Kit (Crystal Chem, #90080). All mice and treatment groups were assessed blindly while performing experiments.

T2D KKAy mice = assay: Hyperinsulinemic euglycemic glucose clamp in T2D KKAy mice; type: in vivo
Procedure: Sterile silicone catheters (Dow-Corning) were placed into the jugular vein of mice under isoflurane anesthesia. Placed catheter was flushed with 200 U/ml heparin in saline and the free end of the catheter was directed subcutaneously via a blunted 14-gauge sterile needle and connected to a small tubing device that exited through the back of the animal. […] Hyperinsulinemic euglycemic clamps were performed on day 8 post-surgery on unrestrained, conscious mice as described elsewhere (Ayala et al., 2011; Kim et al., 2000), with some modifications. Mice were fasted for 6 h at which time insulin and glucose infusion were initiated (time 0). At 80 min prior to time 0 basal sampling was conducted, where whole-body glucose flux was traced by infusion of 0.05 μCi/min D-[3-3H]-glucose (Perkin Elmer), after a priming 5 μCi bolus for 1 minute. After the basal period, starting at time 0 D-[3-3H]-glucose was continuously infused at the 0.2 μCi/min rate and the infusion of insulin (Humulin, Eli Lilly) was initiated with a bolus of 80 mU/kg/min then followed by continuous infusion of insulin at the dose of 8 mU/kg/min throughout the assay. Fifty percent dextrose (Hospira) was infused at a variable rates (GIR) starting at the same time as the initiation of insulin infusion to maintain euglycemia at the targeted level of 150 mg/dl ([…]). Blood glucose (BG) measurements were taken every ten minutes via tail vein sampling using Contour glucometer (Bayer). After mouse reached stable BG and GIR (typically, after 75 minutes since starting the insulin infusion; for some mice, a longer time was required to achieve steady state) a single bolus of 12 μCi of [1-14C]-2-deoxy-D-glucose (Perkin Elmer) in 96 μl of saline was administered. Plasma samples (collected from centrifuged blood) for determination of tracers enrichment, glucose level and insulin concentration were obtained at times −80, −20, −10, 0, and every 10 min starting at 80 min post-insulin (5 min after [1-14C]-2-deoxy-D-glucose bolus was administered) until the conclusion of the assay at 140 min. Tissue samples were then collected from mice under isofluorane anesthesia from organs of interest (e.g., liver, heart, kidney, white adipose tissue, brown adipose tissue, gastrocnemius, soleus etc.) for determination of 1-14C1-2-deoxy-D-glucose tracer uptake. Plasma and tissue samples were processed as described previously (Ayala et al., 2011). Briefly, plasma samples were deproteinized with Ba(OH)2 and ZnSO4 and dried to eliminate tritiated water. The glucose turnover rate (mg/kg-min) was calculated as the rate of tracer infusion (dpm/min) divided by the corrected plasma glucose specific activity (dpm/mg) per kg body weight of the mouse. Fluctuations from steady state were accounted for by use of Steele's model. Plasma glucose was measured using Analox GMD9 system (Analox Technologies).
Tissue samples (˜30 mg each) were homogenized in 750 μl of 0.5% perchloric acid, neutralized with 10 M KOH and centrifuged. The supernatant was then used for first measuring the abundance of total [1-14C] signal (derived from both 1-14C-2-deoxy-D-glucose, 1-14C-2-deoxy-D-glucose 6 phosphate) and, following a precipitation step with 0.3 N […] and 0.3 N ZnSO4, for the measuring of non-phosphorylated 1-14C-2-deoxy-D-glucose. Glycogen was isolated by ethanol precipitation from 30% KOH tissue lysates, as described (Shiota, 2012). Insulin level in plasma at T0 and T140 were measured using a Stellux ELISA rodent insulin kit (Alpco).

hERG = hERG (Homo sapiens, UniProt Q12809); conditions: cited from earlier work
[1] = lean, non-T2D, glucose-tolerant mice, vs vehicle

hERG, sequence (Q12809 whole entry): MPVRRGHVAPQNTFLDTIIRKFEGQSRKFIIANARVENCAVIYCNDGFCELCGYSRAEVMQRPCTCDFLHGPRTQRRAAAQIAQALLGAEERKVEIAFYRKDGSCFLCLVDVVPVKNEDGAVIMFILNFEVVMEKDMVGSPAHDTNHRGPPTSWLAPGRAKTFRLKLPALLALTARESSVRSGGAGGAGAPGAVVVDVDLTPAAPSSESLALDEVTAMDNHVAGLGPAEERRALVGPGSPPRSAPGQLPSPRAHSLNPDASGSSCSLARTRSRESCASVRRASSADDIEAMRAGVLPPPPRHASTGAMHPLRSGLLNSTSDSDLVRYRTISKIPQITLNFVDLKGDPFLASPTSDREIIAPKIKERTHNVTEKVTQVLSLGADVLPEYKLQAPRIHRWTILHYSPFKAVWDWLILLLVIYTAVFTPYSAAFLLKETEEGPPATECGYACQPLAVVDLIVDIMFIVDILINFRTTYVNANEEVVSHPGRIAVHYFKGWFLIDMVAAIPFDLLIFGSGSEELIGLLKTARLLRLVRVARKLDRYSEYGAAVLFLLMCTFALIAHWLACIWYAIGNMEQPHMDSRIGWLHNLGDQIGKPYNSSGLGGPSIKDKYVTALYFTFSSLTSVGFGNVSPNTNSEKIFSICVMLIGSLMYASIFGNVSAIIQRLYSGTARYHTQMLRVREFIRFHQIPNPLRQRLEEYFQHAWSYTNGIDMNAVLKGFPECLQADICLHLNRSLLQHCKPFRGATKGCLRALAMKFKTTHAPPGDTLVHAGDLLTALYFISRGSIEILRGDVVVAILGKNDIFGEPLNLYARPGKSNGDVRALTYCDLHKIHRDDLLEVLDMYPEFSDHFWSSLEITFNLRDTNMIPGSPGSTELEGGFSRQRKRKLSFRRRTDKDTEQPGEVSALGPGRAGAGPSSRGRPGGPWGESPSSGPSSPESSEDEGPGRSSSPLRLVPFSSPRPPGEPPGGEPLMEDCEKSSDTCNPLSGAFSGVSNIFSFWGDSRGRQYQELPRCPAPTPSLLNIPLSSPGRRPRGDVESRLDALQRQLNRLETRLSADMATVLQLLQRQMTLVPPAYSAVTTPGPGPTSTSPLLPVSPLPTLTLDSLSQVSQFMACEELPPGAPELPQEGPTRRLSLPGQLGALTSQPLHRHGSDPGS

CCCCC1(C2CCCC2)Cc2cc(OCCCC(=O)O)c(Cl)c(Cl)c2C1=O (stereo not shown) [SN-401, 4-((2-butyl-6,7-dichloro-2-cyclopentyl-1-oxo-2,3-dihydro-1H-inden-5-yl)oxy)butanoic acid]
Hypoglycemia (non-T2D mice; control KKAa parental strain, 5 mg/kg x 4-10 days): does not cause hypoglycemia | FG (non-T2D mice; [1]): similar | GTT (non-T2D mice; [1]): similar | ITT (non-T2D mice; [1]): similar | Glucose-infusion rate (GIR) to maintain euglycemia (T2D KKAy mice; T2D KKAy mice, 5 mg/kg i.p. 4 days, vs vehicle): higher | Reduction of hepatic glucose production (Ra) at baseline (T2D KKAy mice; T2D KKAy mice, Basal): 40% | Suppression of hepatic glucose production (Ra) during glucose/insulin infusion (T2D KKAy mice; T2D KKAy mice, Clamp): 75% | Glucose incorporation into glycogen (T2D KKAy mice; adipose): markedly increased | Insulin-stimulated 2-DG uptake (T2D KKAy mice; brown fat): not | Insulin-stimulated 2-DG uptake (T2D KKAy mice; gonadal white adipose tissue (gWAT)): enhanced | Insulin-stimulated 2-DG uptake (T2D KKAy mice; inguinal white adipose tissue (iWAT)): enhanced | Glucose incorporation into glycogen (T2D KKAy mice; liver): markedly increased | Insulin-stimulated 2-DG uptake (T2D KKAy mice; myocardium): enhanced | Glucose incorporation into glycogen (T2D KKAy mice; skeletal muscle): markedly increased | Insulin-stimulated 2-DG uptake (T2D KKAy mice; skeletal muscle): not | Effect on hERG (hERG): no effect

Reference: patent US20220242812A1, “SWELL1-LRRC8 COMPLEX MODULATORS” (Washington University, priority 2019, published 2022)
